The text below walks through data of PMC4645160, “Targeting kinases with anilinopyrimidines: discovery of N-phenyl-N’-[4-(pyrimidin-4-ylamino)phenyl]urea derivatives as selective inhibitors of class III receptor tyrosine kinase subfamily” (Scientific Reports, 2015).

For orientation: IC50 means the point on the concentration scale where inhibition reaches its midpoint. By Kd is commonly meant a measure of binding affinity in units of concentration.

Like-named read-outs stand apart in the source and are kept apart here.

The test system of one test is A431 cells. As to the kind of experiment: MTT cytotoxicity assay, A431 epidermoid carcinoma cells. It is filed as cell-based. The conditions noted are these: Homo sapiens, A-431; MTT test, 72 h; read-out: A431 IC50 (μM) ± SD. On the procedure:
F. Zunino (Division of Experimental Oncology B, Istituto Nazionale dei Tumori, Milan, Italy).
The growth inhibitory effect towards human cell lines was evaluated by means of MTT (tetrazolium salt reduction) assay. […] Triplicate cultures were established for each treatment.

In another test the target is T1, KIT (Homo sapiens, UniProt P10721).
T1 construct: purchased DiscoverX (KinomeScan service)
T1 sequence (P10721 26-976): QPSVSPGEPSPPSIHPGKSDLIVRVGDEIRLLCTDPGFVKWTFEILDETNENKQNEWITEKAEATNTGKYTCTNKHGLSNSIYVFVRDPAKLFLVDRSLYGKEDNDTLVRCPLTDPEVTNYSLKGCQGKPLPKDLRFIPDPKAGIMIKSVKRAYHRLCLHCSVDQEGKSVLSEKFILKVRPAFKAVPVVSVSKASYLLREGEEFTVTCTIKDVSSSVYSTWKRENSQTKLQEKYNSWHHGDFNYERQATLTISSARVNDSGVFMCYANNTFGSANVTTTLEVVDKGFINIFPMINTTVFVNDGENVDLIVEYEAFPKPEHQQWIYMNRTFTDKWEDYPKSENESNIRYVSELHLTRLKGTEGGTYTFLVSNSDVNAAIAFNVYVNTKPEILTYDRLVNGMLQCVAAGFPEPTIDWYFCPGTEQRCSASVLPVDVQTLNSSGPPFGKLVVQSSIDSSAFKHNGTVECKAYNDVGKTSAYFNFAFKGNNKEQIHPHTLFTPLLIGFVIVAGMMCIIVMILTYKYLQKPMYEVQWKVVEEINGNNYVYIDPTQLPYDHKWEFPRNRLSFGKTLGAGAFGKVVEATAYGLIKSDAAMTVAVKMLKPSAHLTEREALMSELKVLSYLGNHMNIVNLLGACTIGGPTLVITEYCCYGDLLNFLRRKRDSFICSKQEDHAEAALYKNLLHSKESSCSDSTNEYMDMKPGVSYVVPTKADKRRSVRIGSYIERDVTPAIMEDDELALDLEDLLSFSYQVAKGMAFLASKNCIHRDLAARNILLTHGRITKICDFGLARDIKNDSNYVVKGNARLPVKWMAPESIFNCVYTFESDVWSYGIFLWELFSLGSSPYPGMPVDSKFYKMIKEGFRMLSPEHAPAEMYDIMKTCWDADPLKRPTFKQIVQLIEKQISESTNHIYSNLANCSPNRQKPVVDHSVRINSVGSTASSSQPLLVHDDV
As to the kind of experiment: KinomeScan Kd determination, KIT. It is filed as binding. The conditions noted are these: for KdRTK/KdKIT, KIT: Kd KIT over Kd KIT; for Kd: KinomeScan. The procedure:
(§1) The compounds were evaluated using the KinomeScan™ platform (http://www.discoverx.com/services/drug-discovery-development-services/kinase-profiling/kinomescan), that measures the ability of the test compound to disrupt the complex between a high affinity ATP-mimic probe immobilized on a solid support and the kinase of interest. The KinomeScan is a very helpful technology for the fast and reliable screening of a number of compounds against a wide and customizable panel of kinases. Besides, it is not based on the use of hazardous radioactive ^32P-ATP and has a very low rate of false positive (<1%)[44]. The screening platform outputs a “Percent of Control” (POC) value, statistically correlated to the dissociation constant (Kd) value (http://www.discoverx.com/tools-resources/leadhunter-study-reports-data-analysis), for each pair of kinase/ligand. The POC is calculated as reported in equation (1): […]
(§2) The ability of compounds 19 and 27 to bind the class III RTK members was measured (Table 2; see also Figs S3 and S4 for dose/response curves).
(§3) Figure S3. Dose/response curve for compound 19 against tested kinases for Kd determination. The amount of kinase measured by qPCR (Signal; y-axis) is plotted against the corresponding compound concentration in nM in log10 scale (x-axis). Data points marked with an "x" were not used for Kd determination.
(§4) (1 picture or pasted object on this page, not shown here)
(§5) Figure S4. Dose/response curve for compound 27 against tested kinases for Kd

A further test has as its target T2, FLT3 (Homo sapiens, UniProt P36888).
T2 construct: purchased DiscoverX (KinomeScan service)
T2 sequence (P36888 27-993): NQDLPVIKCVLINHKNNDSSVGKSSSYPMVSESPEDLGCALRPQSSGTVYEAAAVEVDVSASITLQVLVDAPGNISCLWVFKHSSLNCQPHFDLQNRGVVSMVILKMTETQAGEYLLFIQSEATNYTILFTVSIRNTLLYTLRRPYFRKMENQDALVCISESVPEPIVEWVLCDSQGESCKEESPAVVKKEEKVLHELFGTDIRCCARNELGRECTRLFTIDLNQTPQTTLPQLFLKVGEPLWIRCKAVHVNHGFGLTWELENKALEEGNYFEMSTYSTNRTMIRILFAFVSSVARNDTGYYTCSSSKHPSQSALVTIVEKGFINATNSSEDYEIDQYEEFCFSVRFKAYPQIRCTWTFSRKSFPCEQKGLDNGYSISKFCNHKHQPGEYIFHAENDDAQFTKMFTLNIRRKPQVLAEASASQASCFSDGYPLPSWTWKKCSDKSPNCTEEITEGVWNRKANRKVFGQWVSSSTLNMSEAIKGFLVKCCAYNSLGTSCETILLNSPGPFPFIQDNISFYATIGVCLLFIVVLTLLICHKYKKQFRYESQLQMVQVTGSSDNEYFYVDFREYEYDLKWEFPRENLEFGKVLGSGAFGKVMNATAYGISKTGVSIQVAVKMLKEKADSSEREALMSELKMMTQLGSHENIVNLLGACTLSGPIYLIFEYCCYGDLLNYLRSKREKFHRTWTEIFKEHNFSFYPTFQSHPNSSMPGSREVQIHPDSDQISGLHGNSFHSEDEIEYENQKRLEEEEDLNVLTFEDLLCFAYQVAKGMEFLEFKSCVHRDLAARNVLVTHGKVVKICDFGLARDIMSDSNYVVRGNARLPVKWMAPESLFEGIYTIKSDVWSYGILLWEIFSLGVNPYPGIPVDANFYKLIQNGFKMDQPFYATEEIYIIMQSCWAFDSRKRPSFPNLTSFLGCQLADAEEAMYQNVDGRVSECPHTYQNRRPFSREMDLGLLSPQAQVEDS
As to the kind of experiment: KinomeScan Kd determination, FLT3. The note with it: for KdRTK/KdKIT, FLT3: Kd FLT3 over Kd KIT; for Kd: KinomeScan. The class given is binding. On the procedure: as §1, §2, §3, §4, §5

On to `O=C(Nc1ccccc1)Nc1ccc(Nc2cc(-c3ccccc3)ncn2)cc1` [Compound 19], for which the IC50 in the test with A431 cells stood at 2.85 ± 1.03 µM. Moreover, the “KdRTK/KdKIT, KIT” value at KIT came to 1. Besides, the results for the dissociation constant Kd at KIT and at FLT3 (read-out: Kd (nM) FLT3) were 22 nM and 4600 nM, respectively. The “KdRTK/KdKIT, FLT3” value at FLT3 came to 209.

For `O=C(CN1CCOCC1)Nc1cccc(-c2cc(Nc3ccc(NC(=O)Nc4ccccc4)cc3)ncn2)c1` [Compound 27], the half-maximal inhibitory concentration (IC50) in the test on A431 cells is 1.96 ± 0.92 µM. At KIT (27 versus 19), the “Potency improvement Kd19/Kd27, KIT” value worked out at 2.2. The “KdRTK/KdKIT, KIT” value on KIT is 1. Further, the Kd on KIT was 10 nM; on FLT3 (bound stated, read-out: Kd against FLT3), above 1000 nM; at FLT3 (read-out: Kd (nM) FLT3) it was 1300 nM. For the same molecule, the “Potency improvement Kd19/Kd27, FLT3” value at FLT3 (27 versus 19) turned out to be 3.5. The “KdRTK/KdKIT, FLT3” value at FLT3 amounted to 130.
